From patent US20250230193A1, “CYCLIC COMPOUND HAVING SELECTIVE KRAS INHIBITORY EFFECT ON HRAS AND NRAS” (CHUGAI SEIYAKU KABUSHIKI KAISHA, priority 2022, published 2025)

Tests used:
[1] = target: GDP-bound HRAS wild-type protein (Homo sapiens, UniProt P01112); experiment: Binding to HRAS by surface plasmon resonance (SPR), Single Cycle Kinetics; details: SPR; KD ratio class
[2] = target: GDP-bound NRAS wild-type protein (Homo sapiens, UniProt P01111); experiment: Binding to NRAS by surface plasmon resonance (SPR), Single Cycle Kinetics; details: SPR; KD ratio class
[3] = tested on: human lung cancer strain NCI-H441; experiment: cells; details: NCI-H441, 96 h, read-out: NCI-H441 IC50 (nM)

Chain of GDP-bound NRAS wild-type protein (P01111 whole entry): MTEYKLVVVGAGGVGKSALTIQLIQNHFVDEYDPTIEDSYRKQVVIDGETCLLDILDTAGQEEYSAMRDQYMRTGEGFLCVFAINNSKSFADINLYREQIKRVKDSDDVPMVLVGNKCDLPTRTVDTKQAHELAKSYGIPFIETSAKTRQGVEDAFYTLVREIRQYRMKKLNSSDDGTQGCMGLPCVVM
Chain of GDP-bound HRAS wild-type protein (P01112 whole entry): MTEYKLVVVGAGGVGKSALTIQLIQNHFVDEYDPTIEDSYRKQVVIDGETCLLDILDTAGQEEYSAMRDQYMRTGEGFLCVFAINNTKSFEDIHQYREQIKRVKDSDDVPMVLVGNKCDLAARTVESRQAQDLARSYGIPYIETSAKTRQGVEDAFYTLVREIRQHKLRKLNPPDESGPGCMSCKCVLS

SMILES | HRAS/KRAS (ratio of KD value for GDP-bound HRAS wild-type protein to KD value for KRAS) [1] | NRAS/KRAS (ratio of KD value for GDP-bound NRAS wild-type protein to KD value for KRAS) [2] | IC50 [3] [nM]
CCO[C@@H]1C[C@H]2C(=O)NC3(CCC3)C(=O)N(C)[C@@H](C(CC)CC)C(=O)N(C)[C@H](C(=O)N3CCOCC3)CC(=O)N(C)[C@@H](CC(C)C)C(=O)N[C@@H]([C@@H](C)CC)C(=O)N(C)CC(=O)N(C)[C@H]3C/C=C\CCN(C3=O)[C@@H](Cc3ccc(C(F)(F)F)cc3)C(=O)N(C)CC(=O)N[C@@H](CCc3cc(F)c(C(F)(F)F)c(F)c3)C(=O)N2C1 [PP1287] | A (a compound having 10 or more and less than 20 is denoted as A) | AA (a compound having 20 or more is denoted as AA) | 49.7
CCC[C@H]1C(=O)N[C@@H]([C@@H](C)CC)C(=O)N(C)CC(=O)N(C)[C@H]2C/C=C\CCN(C2=O)[C@@H](Cc2ccc(C(F)(F)F)cc2)C(=O)N(C)CC(=O)N[C@@H](CCc2cc(F)c(C(F)(F)F)c(F)c2)C(=O)N2C[C@H](OCC)C[C@H]2C(=O)NC2(CCC2)C(=O)N(C)[C@@H](C2CCCC2)C(=O)N(C)[C@H](C(=O)N2CCOCC2)CC(=O)N1C [PP1288] | A (a compound having 10 or more and less than 20 is denoted as A) | AA (a compound having 20 or more is denoted as AA) | 22.2
CCO[C@@H]1C[C@H]2C(=O)NC3(CCC3)C(=O)N(C)[C@@H](C3CCCC3)C(=O)N(C)[C@H](C(=O)N3CCCCC3)CC(=O)N(C)[C@@H](CC)C(=O)N[C@@H]([C@@H](C)CC)C(=O)N(C)CC(=O)N(C)[C@H]3C/C=C\CCN(C3=O)[C@@H](Cc3ccc(C(F)(F)F)cc3)C(=O)N(C)CC(=O)N[C@@H](CCc3cc(F)c(C(F)(F)F)c(F)c3)C(=O)N2C1 [PP1289] | A (a compound having 10 or more and less than 20 is denoted as A) | AA (a compound having 20 or more is denoted as AA) | 34.7
CCO[C@@H]1C[C@H]2C(=O)NC3(CCC3)C(=O)N(C)[C@@H](C3CCCC3)C(=O)N(C)[C@H](C(=O)N3CCCCC3)CC(=O)N(C)[C@@H](CC(C)C)C(=O)N[C@@H]([C@@H](C)CC)C(=O)N(C)CC(=O)N(C)[C@H]3C/C=C\CCN(C3=O)[C@@H](Cc3ccc(C(F)(F)F)cc3)C(=O)N(C)CC(=O)N[C@@H](CCc3cc(F)c(C(F)(F)F)c(F)c3)C(=O)N2C1 [PP1290] | A (a compound having 10 or more and less than 20 is denoted as A) | AA (a compound having 20 or more is denoted as AA) | 15.4
CCO[C@@H]1C[C@H]2C(=O)NC3(CCC3)C(=O)N(C)[C@@H](C3CCCC3)C(=O)N(C)[C@H](C(=O)N3CCCCC3)CC(=O)N(C)[C@@H](CC3CC3)C(=O)N[C@@H]([C@@H](C)CC)C(=O)N(C)CC(=O)N(C)[C@H]3C/C=C\CCN(C3=O)[C@@H](Cc3ccc(C(F)(F)F)cc3)C(=O)N(C)CC(=O)N[C@@H](CCc3cc(F)c(C(F)(F)F)c(F)c3)C(=O)N2C1 [PP1291] | A (a compound having 10 or more and less than 20 is denoted as A) | A (a compound having 10 or more and less than 20 is denoted as A) | 16.7
CCO[C@@H]1C[C@H]2C(=O)NC3(CCC3)C(=O)N(C)[C@@H](C3CCCC3)C(=O)N(C)[C@H](C(=O)N3CCCCC3)CC(=O)N(C)[C@@H](C)C(=O)N[C@@H]([C@@H](C)CC)C(=O)N(C)CC(=O)N(C)[C@H]3C/C=C\CCN(C3=O)[C@@H](Cc3ccc(C(F)(F)F)cc3)C(=O)N(C)CC(=O)N[C@@H](CCc3cc(F)c(C(F)(F)F)c(F)c3)C(=O)N2C1 [PP1292] | A (a compound having 10 or more and less than 20 is denoted as A) | A (a compound having 10 or more and less than 20 is denoted as A) | 24.6
CCC[C@H]1C(=O)N[C@@H]([C@@H](C)CC)C(=O)N(C)CC(=O)N(C)[C@H]2C/C=C\CCN(C2=O)[C@@H](Cc2ccc(C(F)(F)F)cc2)C(=O)N(C)CC(=O)N[C@@H](CCc2cc(F)c(C(F)(F)F)c(F)c2)C(=O)N2C[C@H](OCC)C[C@H]2C(=O)NC2(CCC2)C(=O)N(C)[C@@H](C2CCCC2)C(=O)N(C)[C@H](C(=O)N2CCCCC2)CC(=O)N1C [PP1294] | A (a compound having 10 or more and less than 20 is denoted as A) | A (a compound having 10 or more and less than 20 is denoted as A) | 10
CC[C@H](C)[C@@H]1NC(=O)[C@H](CC)N(C)C(=O)C[C@@H](C(=O)N(C)C)N(C)C(=O)[C@H](C2CCCC2)N(C)C(=O)C2(CCCC2)NC(=O)[C@@H]2CCCN2C(=O)[C@H](CCc2ccc(C(F)(F)F)c(Cl)c2)NC(=O)CN(C)C(=O)[C@H](Cc2ccc(C(F)(F)F)cc2)N2C[C@H](C)CC[C@@H](C2=O)N(C)C(=O)CN(C)C1=O [PP1336] | B (a compound having 3 or more and less than 10 is denoted as B) | B (a compound having 3 or more and less than 10 is denoted as B) | 10.8
CC[C@H](C)[C@@H]1NC(=O)[C@H](CC)N(C)C(=O)C[C@@H](C(=O)N2CCOCC2)N(C)C(=O)[C@H](C2CCCC2)N(C)C(=O)C2(CCCC2)NC(=O)[C@@H]2CCCN2C(=O)[C@H](CCc2ccc(C(F)(F)F)c(Cl)c2)NC(=O)CN(C)C(=O)[C@H](Cc2ccc(C(F)(F)F)cc2)N2C[C@H](C)CC[C@@H](C2=O)N(C)C(=O)CN(C)C1=O [PP1337] | B (a compound having 3 or more and less than 10 is denoted as B) | B (a compound having 3 or more and less than 10 is denoted as B) | 29.8
CC[C@H](C)[C@@H]1NC(=O)[C@H](CC)N(C)C(=O)C[C@@H](C(=O)N2CCOCC2)N(C)C(=O)[C@H](C2CCCC2)N(C)C(=O)C2(CCC2)NC(=O)[C@@H]2CCCN2C(=O)[C@H](CCc2ccc(C(F)(F)F)c(Cl)c2)NC(=O)CN(C)C(=O)[C@H](Cc2ccc(C(F)(F)F)cc2)N2C[C@H](C)CC[C@@H](C2=O)N(C)C(=O)CN(C)C1=O [PP1338] | B (a compound having 3 or more and less than 10 is denoted as B) | B (a compound having 3 or more and less than 10 is denoted as B) | 35
C#CC[C@H]1C(=O)N[C@@H]([C@@H](C)CC)C(=O)N(C)CC(=O)N(C)[C@H]2CC[C@@H](C)CN(C2=O)[C@@H](Cc2ccc(C(F)(F)F)cc2)C(=O)N(C)CC(=O)N[C@@H](CCc2ccc(C(F)(F)F)c(Cl)c2)C(=O)N2CCC[C@H]2C(=O)NC2(CCCC2)C(=O)N(C)[C@@H](C2CCCC2)C(=O)N(C)[C@H](C(=O)N(C)C)CC(=O)N1C [PP1340] | B (a compound having 3 or more and less than 10 is denoted as B) | B (a compound having 3 or more and less than 10 is denoted as B) | 10.9
CC[C@H](C)[C@@H]1NC(=O)[C@H](CC2CC2)N(C)C(=O)C[C@@H](C(=O)N2CCOCC2)N(C)C(=O)[C@H](C2CCCC2)N(C)C(=O)C2(CCC2)NC(=O)[C@@H]2CCCN2C(=O)[C@H](CCc2ccc(C(F)(F)F)c(Cl)c2)NC(=O)CN(C)C(=O)[C@H](Cc2ccc(C(F)(F)F)cc2)N2C[C@H](C)CC[C@@H](C2=O)N(C)C(=O)[C@@H]2CCN2C1=O [PP1341] | B (a compound having 3 or more and less than 10 is denoted as B) | A (a compound having 10 or more and less than 20 is denoted as A) | 46.3
CC[C@H](C)[C@@H]1NC(=O)[C@H](CC2CCC2)N(C)C(=O)C[C@@H](C(=O)N(C)C)N(C)C(=O)[C@H](C2CCCC2)N(C)C(=O)C2(CCCC2)NC(=O)[C@@H]2CCCN2C(=O)[C@H](CCc2ccc(C(F)(F)F)c(Cl)c2)NC(=O)CN(C)C(=O)[C@H](Cc2ccc(C(F)(F)F)cc2)N2C[C@H](C)CC[C@@H](C2=O)N(C)C(=O)CN(C)C1=O [PP1342] | B (a compound having 3 or more and less than 10 is denoted as B) | B (a compound having 3 or more and less than 10 is denoted as B) | 5
CC[C@H](C)[C@@H]1NC(=O)[C@H](CC2CC2)N(C)C(=O)C[C@@H](C(=O)N2CCOCC2)N(C)C(=O)[C@H](C2CCCC2)N(C)C(=O)C2(CCCC2)NC(=O)[C@@H]2CCCN2C(=O)[C@H](CCc2ccc(C(F)(F)F)c(Cl)c2)NC(=O)CN(C)C(=O)[C@H](Cc2ccc(C(F)(F)F)cc2)N2C[C@H](C)CC[C@@H](C2=O)N(C)C(=O)CN(C)C1=O [PP1343] | B (a compound having 3 or more and less than 10 is denoted as B) | A (a compound having 10 or more and less than 20 is denoted as A) | 19.3
